Patent US20090054469A1, “QUINAZOLINONE DERIVATIVES AND THEIR USE AS B-RAF INHIBITORS” (ASTRAZENECA AB, priority 2005, published 2009)

Biological target: T1, human recombinant, purified wild type His-B-Raf protein kinase (Homo sapiens, UniProt P15056)
T1 construct: His
Assay: B-Raf In Vitro ELISA Assay
Type: biochemical
Settings: 2.5 nM B-Raf, 0.15 μM MEK1, 10 μM ATP; 1 hour preincubation at 25° C.; phosphorylation of MEK1
Protocol: B-Raf In Vitro ELISA Assay
Activity of human recombinant, purified wild type His-B-Raf protein kinase was determined in vitro using an enzyme-linked immunosorbent assay (ELISA) assay format, which measures phosphorylation of the B-Raf substrate, human recombinant, purified His-derived (detagged) MEK1. The reaction utilized 2.5 nM B-Raf, 0.15 μM MEK1 and 10 μM adenosine triphosphate (ATP) in 40 mM N-(2-hydroxyethyl)piperazine-N′-(2-ethanesulfonic acid hemisodium salt (HEPES), 5 mM 1,4-dithio-DL-threitol (DTT), 10 mM MgCl2, 1 mM ethylenediaminetetraacetic acid (EDTA) and 0.2 M NaCl (1×HEPES buffer), with or without compound at various concentrations, in a total reaction volume of 25 μl in 384 well plates. B-Raf and compound were preincubated in 1×HEPES buffer for 1 hour at 25° C. Reactions were initiated with addition of MEK1 and ATP in 1×HEPES buffer and incubated at 25° C. for 50 minutes and reactions stopped by addition of 10 μl 175 mM EDTA (final concentration 50 mM) in 1×HEPES buffer. 5 μl of the assay mix was then diluted 1:20 into 50 mM EDTA in 1×HEPES buffer, transferred to 384 well black high protein binding plates and incubated overnight at 4° C. […] Blue fluorescent product was detected at excitation 325 nm and emission 420 nm using a TECAN Ultra plate reader. Data was graphed and IC50s calculated using Excel Fit (Microsoft).

T1 sequence (P15056 whole entry): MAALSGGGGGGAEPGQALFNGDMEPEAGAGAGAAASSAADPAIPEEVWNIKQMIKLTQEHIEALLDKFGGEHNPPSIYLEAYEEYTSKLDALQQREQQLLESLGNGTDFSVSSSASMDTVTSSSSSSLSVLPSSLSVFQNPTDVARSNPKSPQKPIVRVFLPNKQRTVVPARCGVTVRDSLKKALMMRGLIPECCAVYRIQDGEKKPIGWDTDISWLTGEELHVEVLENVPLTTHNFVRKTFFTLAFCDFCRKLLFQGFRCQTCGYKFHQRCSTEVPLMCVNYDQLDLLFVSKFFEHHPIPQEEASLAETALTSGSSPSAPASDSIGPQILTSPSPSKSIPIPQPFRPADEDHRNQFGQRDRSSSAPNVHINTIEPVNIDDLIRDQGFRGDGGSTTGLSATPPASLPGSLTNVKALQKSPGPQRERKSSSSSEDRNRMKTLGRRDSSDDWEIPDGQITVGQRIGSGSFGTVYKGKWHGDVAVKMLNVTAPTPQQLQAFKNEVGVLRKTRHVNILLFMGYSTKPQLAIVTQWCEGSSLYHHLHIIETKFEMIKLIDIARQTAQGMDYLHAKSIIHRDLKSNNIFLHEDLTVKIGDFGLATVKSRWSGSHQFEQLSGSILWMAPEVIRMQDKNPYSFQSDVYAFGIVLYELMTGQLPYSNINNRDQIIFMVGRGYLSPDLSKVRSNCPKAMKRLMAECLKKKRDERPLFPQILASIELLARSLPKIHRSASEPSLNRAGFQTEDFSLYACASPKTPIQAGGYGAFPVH

IC50	Compound
1 nM	Cc1ccc(NC(=O)c2cccc(C(C)(C)C#N)c2)cc1NC(=O)c1ccc2nc[nH]c(=O)c2c1 [Example 1, N-(5-{[3-(1-Cyano-1-methylethyl)benzoyl]amino}-2-methylphenyl)-4-oxo-3,4-dihydroquinazoline-6-carboxamide]
3 nM	Cc1ccc(NC(=O)c2cccc(C(C)(C)C#N)c2)cc1NC(=O)c1ccc2ncn(C)c(=O)c2c1 [Example 6, N-(5-{[3-(1-Cyano-1-methylethyl)benzoyl]amino}-2-methylphenyl)-3-methyl-4-oxo-3,4-dihydroquinazoline-6-carboxamide]
